{"source": "patent US6495525B1", "about": "“VLA-4 inhibitor: oMePUPA-V” (Biogen, Inc., priority 1998, dated 2002)", "key": {"[1]": {"tested_on": "sRBC-induced DTH model in mice", "assay": "sRBC-induced delayed type hypersensitivity, footpad swelling", "format": "in vivo", "conditions": "20 mg/kg enterally", "experimental": "Specific pathogen-free female Balb/c mice, aged 8-10 weeks, from Jackson Labs were used for all experiments. The animals were fed food and water ad libitum. Sheep red blood cells (sRBC) in Alsever's solution from the same sheep were obtained weekly from Charles River Pharm. Services (Southbridge, Mass.). The sRBC were pelleted by centrifugation at 1000 g for 10 minutes at 4° C. and any visible buffy coat removed. The cells were then washed in saline. The cell pellet was resuspended in saline and counted using a hemocytometer. The cells were diluted in phosphate buffered saline (PBS) to 2×10^8 sRBC per mL. On Day 0, mice were sensitized by a s.c. injection of 2×10^7 sRBC in 100 μL PBS. On Day 5, sRBC were prepared as above, but diluted in PBS to a final concentration of 4×10^9 sRBC per ml. Of this preparation, 25 μL was injected s.c. into the right rear footpad.\nFor enteral administration of compound, oMePUPA-V (Lot #2770-029) was formulated in a vehicle of 60% PEG 400 in 0.02M TRIS to a stock concentration of 5 mg/mL. […]\nSwelling of unchallenged control (left) and challenged (right) rear footpads was measured using a tension caliper from Mitutoyo (Model #304-196, Dyer, Lancaster, Pa.) at 20 hours post-footpad challenge. The data are presented as the change in footpad thickness, determined by subtracting the left hind paw thickness from the right hind paw thickness. […]"}, "α4β7": {"biological_target": "T1, α4β7 (Homo sapiens, UniProt P13612+P26010)", "T1 construct": "endogenous in cells; host or cells: JY cells", "T1 sequence (P13612 34-1032)": "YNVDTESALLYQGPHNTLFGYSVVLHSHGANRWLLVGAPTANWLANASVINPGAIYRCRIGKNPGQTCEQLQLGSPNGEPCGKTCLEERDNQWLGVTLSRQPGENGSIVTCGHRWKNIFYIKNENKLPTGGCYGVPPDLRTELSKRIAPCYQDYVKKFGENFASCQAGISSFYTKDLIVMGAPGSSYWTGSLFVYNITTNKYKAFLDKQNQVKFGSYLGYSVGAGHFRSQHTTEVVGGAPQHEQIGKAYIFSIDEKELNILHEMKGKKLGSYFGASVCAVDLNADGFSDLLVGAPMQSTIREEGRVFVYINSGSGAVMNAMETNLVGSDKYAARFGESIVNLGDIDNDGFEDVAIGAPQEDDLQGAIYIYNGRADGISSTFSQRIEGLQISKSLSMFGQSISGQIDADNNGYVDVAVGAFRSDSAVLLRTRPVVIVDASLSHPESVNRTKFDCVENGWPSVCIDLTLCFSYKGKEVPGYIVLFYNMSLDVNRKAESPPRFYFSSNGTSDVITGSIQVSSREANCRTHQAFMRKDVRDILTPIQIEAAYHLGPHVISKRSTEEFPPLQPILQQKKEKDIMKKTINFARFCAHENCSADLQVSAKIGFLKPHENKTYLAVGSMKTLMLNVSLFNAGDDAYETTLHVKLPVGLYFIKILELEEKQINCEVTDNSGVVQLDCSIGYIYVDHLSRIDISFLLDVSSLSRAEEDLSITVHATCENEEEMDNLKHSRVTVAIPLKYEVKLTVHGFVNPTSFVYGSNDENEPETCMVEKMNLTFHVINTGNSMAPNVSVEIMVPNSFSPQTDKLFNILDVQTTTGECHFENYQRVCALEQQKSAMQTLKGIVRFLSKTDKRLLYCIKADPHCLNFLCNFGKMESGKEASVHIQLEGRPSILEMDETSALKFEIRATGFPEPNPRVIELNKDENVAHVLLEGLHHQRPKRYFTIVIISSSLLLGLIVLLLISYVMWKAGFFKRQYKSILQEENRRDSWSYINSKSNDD", "T1 sequence (P26010 20-798)": "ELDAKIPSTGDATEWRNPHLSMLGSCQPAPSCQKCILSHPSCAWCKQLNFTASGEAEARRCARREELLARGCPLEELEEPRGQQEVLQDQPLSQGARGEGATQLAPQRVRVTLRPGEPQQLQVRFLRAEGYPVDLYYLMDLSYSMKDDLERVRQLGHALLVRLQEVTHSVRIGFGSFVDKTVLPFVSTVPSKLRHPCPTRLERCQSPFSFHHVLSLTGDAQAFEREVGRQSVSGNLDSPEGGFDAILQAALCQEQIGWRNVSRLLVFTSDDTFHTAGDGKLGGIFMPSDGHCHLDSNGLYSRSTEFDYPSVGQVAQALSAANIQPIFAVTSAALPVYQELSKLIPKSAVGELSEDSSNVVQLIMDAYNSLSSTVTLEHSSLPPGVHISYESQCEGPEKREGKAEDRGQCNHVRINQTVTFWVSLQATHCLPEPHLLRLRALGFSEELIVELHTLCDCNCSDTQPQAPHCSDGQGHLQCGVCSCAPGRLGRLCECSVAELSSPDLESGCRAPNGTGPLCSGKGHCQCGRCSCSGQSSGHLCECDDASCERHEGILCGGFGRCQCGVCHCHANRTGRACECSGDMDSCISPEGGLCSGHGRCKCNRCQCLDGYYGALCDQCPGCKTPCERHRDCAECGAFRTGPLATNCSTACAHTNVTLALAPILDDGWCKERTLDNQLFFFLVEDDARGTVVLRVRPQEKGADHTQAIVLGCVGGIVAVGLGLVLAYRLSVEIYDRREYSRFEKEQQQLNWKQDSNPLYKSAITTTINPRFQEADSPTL", "assay": "JY cell adhesion to CS1/BSA conjugate", "format": "cell-based", "conditions": "Mn+2", "experimental": "Binding to α4β7 was assessed on JY cells in the presence of Mn^+2. In the binding assay, VCAM-Ig and oMePUPA-V compete for binding to α4β7 on JY cells (See section 4.1.1 for assay protocol). In the cell adhesion assay, oMePUPA-V was tested for its ability to block JY (α4β7) cell binding to CS1/BSA conjugate"}, "VLA-4": {"biological_target": "VLA-4 (Homo sapiens, UniProt P05556+P13612)", "sequence (P05556 21-798, one chain of several)": "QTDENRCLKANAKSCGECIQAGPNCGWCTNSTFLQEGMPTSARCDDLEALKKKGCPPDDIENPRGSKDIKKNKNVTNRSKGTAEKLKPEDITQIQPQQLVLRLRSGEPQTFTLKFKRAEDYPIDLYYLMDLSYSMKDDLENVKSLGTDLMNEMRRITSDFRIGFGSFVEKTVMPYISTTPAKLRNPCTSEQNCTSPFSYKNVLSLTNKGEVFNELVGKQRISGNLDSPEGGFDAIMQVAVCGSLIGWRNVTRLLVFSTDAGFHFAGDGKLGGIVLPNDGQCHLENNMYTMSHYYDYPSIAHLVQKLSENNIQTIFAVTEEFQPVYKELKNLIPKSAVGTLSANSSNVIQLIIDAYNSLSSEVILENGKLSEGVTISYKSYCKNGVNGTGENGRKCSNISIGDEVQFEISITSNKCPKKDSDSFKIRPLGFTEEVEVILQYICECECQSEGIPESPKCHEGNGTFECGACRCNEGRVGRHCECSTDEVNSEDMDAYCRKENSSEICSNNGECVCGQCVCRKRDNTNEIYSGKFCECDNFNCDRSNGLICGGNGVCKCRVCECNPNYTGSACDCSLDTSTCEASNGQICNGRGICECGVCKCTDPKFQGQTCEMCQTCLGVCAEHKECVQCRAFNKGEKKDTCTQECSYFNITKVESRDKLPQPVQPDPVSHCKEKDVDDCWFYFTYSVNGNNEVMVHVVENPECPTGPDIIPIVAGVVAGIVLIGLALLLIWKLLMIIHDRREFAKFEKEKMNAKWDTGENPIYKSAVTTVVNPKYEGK", "assay": "Purified VLA-4 Protein/Protein Assay with VCAM-Ig-AP", "format": "binding", "parameters": "endogenous in cells; host or cells: Jurkat (human T cell line)", "experimental": "VLA-4 was purified from a detergent extract of a high expressing subclone of α4-transfected K562 cells by antibody affinity chromatography and immobilized on microtiter wells to establish a protein/protein competitive binding assay. VCAM-Ig-AP was bound to the purified VLA-4-coated plate in the absence or presence of oMePUPA-V (Lot #2) and 1 mM MnCl2. Plates were read at 405 nm and the data were analyzed using SoftMax v. 2.32 software."}}, "data": [{"molecule": "Cc1ccccc1NC(=O)Nc1ccc(CC(=O)N2CCC[C@H]2C(=O)N[C@H](C)CC(=O)O)cc1", "note": "[oMePUPA-V]", "values": [{"measurement": "effect on footpad swelling (in words)", "setting": "[1]", "result": "without effect"}, {"measurement": "inhibition, JY (α4β7) CS1/BSA adhesion", "setting": "α4β7; @ 100 μM", "result": "no inhibition @"}, {"measurement": "blocking of α4β7 binding to CS1/BSA (in words)", "setting": "α4β7; JY cells", "result": "does not block"}, {"measurement": "IC50", "setting": "VLA-4; 1 mM MnCl2, read-out: IC50, Purified VLA-4 VCAM-Ig binding", "result": 0.1, "unit": "nM"}, {"measurement": "potency on isolated VLA-4 relative to Jurkat cells in the binding assay", "setting": "VLA-4; in the presence of Mn+2", "result": 80, "unit": "fold"}]}]}
